The text below walks through data of patent publication US20200239530A1, “COMPOUNDS AND METHODS OF MODULATING PROTEIN DEGRADATION” (Vividion Therapeutics, Inc., priority 2017, published 2020).

Assay in all cases: Cysteine liganding, probe competition
Assay type in all cases: binding

In one test the target is T1, UniProt Q969V5 (Homo sapiens, UniProt Q969V5).
T1 construct: Cells were resuspended in cold PBS on ice and sonicated with a probe sonicator to achieve lysis; endogenous in cells
T1 sequence (Q969V5 1-352): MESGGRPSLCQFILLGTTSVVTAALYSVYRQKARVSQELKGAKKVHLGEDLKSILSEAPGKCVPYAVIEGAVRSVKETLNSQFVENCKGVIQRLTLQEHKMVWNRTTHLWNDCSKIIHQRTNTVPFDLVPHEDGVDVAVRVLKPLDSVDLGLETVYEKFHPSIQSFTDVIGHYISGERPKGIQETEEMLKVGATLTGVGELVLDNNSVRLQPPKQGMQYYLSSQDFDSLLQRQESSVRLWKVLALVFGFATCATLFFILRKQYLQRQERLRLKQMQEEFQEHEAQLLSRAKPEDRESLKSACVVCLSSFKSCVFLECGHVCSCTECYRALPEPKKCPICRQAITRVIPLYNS
Conditions: for percent inhibition: 100 uM. From the text:
(§1) The following 96-well sample prep protocol was used for sample preparation.

The target in the next test is T2, UniProt Q96EX2 (Homo sapiens, UniProt Q96EX2).
T2 construct: 200 μL of lysate containing 5 mg/ml proteome was treated with 2 μL of 100× compound stock; endogenous in cells
T2 sequence (Q96EX2 1-444): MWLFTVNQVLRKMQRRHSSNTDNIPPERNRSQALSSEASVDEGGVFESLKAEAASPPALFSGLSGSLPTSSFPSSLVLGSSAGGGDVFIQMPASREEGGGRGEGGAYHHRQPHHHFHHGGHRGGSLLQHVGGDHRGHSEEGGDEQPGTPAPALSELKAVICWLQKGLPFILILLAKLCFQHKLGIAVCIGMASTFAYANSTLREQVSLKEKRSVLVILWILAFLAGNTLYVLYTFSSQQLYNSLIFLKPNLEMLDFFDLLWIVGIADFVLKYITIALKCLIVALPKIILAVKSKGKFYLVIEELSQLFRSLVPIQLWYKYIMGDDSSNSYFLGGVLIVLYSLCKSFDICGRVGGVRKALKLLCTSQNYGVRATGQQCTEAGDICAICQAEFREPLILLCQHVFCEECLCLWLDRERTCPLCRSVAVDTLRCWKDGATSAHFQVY
Conditions: for inhibition at 100 µM / inhibition at 500 µM: read-out: percent_inhibition.
Source text: as §1

Another test has as its target T3, UniProt P46934 (Homo sapiens, UniProt P46934).
T3 construct: Cells were resuspended in cold PBS on ice and sonicated with a probe sonicator to achieve lysis; endogenous in cells
T3 sequence (P46934 1-1319): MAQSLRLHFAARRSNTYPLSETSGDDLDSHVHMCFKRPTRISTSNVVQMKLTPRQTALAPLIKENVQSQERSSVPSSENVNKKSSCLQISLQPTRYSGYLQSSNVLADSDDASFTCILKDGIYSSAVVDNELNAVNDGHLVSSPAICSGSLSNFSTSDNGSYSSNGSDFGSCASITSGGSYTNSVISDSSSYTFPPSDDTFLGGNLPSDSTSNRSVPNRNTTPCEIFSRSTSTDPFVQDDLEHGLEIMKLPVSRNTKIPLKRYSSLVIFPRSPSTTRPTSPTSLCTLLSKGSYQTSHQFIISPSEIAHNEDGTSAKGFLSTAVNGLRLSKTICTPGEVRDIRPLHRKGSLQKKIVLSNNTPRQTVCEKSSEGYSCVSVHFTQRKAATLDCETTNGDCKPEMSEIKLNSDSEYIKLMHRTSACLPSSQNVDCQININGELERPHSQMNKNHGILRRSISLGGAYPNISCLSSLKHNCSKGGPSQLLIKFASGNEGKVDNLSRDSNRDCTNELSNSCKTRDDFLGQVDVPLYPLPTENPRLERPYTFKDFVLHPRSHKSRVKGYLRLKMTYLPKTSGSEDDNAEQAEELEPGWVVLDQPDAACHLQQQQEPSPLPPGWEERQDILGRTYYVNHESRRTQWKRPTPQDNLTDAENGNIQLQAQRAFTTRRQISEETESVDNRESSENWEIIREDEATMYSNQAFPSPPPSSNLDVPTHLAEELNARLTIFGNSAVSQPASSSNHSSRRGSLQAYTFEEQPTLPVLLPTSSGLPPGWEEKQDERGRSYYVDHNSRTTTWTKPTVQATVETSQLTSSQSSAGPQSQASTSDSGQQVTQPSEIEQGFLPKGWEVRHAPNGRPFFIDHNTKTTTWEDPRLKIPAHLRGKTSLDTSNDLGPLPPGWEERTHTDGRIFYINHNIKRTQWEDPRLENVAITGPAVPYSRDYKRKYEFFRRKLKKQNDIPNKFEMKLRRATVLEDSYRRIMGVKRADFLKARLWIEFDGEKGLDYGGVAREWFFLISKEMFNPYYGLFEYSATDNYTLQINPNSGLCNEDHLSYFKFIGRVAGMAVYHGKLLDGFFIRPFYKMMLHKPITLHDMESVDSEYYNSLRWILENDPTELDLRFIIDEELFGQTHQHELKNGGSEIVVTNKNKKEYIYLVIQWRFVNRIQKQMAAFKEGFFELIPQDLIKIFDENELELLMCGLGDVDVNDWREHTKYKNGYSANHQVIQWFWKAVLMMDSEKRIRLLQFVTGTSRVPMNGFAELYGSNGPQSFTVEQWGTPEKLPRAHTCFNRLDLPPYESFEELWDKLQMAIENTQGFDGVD
Source text: as §1

For a further test, the target named is T4, UniProt Q9BZR9 (Homo sapiens, UniProt Q9BZR9).
T4 construct: 200 μL of lysate containing 5 mg/ml proteome was treated with 2 μL of 100× compound stock; endogenous in cells
T4 sequence (Q9BZR9 1-551): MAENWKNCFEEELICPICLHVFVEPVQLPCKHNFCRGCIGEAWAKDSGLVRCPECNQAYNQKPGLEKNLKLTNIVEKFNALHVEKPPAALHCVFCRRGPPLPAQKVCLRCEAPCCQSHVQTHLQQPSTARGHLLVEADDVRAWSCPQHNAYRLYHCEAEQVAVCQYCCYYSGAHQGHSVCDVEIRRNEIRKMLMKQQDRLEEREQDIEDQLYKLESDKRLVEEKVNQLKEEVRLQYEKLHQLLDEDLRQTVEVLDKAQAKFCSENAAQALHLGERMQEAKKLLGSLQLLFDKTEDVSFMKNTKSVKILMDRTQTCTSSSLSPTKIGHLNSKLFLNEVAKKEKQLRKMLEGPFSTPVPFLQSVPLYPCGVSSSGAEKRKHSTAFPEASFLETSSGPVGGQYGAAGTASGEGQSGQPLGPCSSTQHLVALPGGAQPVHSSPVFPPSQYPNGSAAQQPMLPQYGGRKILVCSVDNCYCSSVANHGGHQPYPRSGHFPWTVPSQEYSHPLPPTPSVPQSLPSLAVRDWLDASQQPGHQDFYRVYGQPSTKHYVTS
Source text: as §1

The target in a further test is T5, UniProt P49792 (Homo sapiens, UniProt P49792).
T5 construct: 200 μL of lysate containing 5 mg/ml proteome was treated with 2 μL of 100× compound stock; endogenous in cells
T5 sequence (P49792 whole entry, change not shown): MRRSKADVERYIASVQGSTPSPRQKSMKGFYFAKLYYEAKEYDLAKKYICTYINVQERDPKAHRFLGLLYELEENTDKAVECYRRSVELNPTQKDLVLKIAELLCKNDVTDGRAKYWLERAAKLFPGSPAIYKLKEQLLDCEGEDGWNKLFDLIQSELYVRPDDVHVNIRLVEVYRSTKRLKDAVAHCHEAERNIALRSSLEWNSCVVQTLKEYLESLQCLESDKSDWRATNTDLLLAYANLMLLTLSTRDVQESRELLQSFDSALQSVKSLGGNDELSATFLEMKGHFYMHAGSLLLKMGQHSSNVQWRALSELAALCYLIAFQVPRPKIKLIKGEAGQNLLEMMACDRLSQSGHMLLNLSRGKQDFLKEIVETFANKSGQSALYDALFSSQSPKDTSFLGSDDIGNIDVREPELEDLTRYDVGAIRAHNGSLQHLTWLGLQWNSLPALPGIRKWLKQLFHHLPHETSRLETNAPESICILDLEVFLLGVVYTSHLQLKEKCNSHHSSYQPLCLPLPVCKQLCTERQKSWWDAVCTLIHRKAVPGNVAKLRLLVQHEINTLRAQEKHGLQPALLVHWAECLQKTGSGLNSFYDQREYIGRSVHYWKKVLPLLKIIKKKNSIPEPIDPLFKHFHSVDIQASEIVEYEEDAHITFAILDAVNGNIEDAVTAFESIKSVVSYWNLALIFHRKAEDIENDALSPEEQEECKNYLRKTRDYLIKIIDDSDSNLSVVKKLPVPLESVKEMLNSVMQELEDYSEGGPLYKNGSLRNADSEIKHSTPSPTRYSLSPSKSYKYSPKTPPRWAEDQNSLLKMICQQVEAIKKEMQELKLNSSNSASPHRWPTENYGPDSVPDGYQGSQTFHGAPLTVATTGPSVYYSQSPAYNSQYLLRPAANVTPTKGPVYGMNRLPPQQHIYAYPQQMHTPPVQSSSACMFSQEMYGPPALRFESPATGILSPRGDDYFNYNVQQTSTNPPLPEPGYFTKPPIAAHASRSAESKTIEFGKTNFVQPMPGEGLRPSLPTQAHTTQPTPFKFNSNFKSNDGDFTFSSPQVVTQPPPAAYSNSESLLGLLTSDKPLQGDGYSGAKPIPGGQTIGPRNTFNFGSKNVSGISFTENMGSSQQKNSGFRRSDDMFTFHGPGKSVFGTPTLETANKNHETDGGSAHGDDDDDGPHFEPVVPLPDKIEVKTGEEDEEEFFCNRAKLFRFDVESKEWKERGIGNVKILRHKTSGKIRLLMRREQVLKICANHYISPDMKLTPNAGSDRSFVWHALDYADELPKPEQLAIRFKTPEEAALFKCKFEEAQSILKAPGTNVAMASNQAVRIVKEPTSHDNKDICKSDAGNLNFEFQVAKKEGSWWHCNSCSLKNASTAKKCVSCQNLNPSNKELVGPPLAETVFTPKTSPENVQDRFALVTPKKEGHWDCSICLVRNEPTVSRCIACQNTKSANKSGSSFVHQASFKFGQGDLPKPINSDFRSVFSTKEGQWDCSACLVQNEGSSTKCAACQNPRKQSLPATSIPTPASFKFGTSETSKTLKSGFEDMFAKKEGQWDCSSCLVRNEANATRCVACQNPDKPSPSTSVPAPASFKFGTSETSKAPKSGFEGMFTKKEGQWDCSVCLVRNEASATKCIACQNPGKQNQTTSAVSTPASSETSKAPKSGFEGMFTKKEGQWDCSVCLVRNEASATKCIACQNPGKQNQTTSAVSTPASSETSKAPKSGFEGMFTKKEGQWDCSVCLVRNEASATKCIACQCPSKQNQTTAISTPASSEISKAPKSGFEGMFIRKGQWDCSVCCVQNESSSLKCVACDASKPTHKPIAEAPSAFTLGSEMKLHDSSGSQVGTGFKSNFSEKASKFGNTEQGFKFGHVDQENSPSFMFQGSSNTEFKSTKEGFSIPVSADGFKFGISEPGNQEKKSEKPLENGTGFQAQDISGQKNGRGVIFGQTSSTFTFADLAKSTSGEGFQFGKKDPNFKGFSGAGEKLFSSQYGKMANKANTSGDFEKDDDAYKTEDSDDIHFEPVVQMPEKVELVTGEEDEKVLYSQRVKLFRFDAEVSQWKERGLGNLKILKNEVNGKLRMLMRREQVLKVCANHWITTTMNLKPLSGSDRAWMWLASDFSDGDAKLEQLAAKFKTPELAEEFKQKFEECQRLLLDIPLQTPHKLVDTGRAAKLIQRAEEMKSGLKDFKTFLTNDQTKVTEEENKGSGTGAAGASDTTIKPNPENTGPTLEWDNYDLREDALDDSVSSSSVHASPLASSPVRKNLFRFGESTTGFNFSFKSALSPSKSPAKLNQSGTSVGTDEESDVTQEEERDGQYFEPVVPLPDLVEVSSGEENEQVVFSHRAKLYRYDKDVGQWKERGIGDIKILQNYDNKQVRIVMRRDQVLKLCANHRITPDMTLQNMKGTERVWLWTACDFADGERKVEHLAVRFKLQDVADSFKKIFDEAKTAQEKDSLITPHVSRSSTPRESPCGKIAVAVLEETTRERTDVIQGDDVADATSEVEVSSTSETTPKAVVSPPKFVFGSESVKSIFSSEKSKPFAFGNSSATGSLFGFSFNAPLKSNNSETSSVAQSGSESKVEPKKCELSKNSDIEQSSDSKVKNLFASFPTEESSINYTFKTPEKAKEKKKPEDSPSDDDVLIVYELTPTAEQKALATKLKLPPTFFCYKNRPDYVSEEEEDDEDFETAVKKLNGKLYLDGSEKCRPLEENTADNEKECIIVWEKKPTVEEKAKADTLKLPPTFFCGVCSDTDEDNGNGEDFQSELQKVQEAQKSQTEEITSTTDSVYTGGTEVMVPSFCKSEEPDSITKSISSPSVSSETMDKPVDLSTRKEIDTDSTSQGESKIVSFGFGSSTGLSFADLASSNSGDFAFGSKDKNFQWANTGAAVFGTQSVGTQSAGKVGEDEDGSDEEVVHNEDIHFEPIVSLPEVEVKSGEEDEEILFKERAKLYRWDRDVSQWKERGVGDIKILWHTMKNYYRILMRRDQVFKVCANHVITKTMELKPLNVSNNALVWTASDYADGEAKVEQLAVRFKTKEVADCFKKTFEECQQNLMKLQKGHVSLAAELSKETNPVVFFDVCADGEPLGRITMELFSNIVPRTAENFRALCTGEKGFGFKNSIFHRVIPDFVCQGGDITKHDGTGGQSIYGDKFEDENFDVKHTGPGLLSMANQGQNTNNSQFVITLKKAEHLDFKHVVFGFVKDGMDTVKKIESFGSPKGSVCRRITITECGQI
The following applies: 500 uM.
Source text: as §1

The compound `COc1ccc2c(c1)CCCN2C(=O)CCl` [KB02] had a percent inhibition on UniProt Q969V5 of 35%. Also, the results for the inhibition at 100 µM on UniProt Q969V5 (read-out: percent inhibition) and on UniProt Q96EX2 were 25% and 44%, respectively. Besides, on UniProt Q96EX2 (500 uM), the inhibition at 500 µM worked out at 42%.

In the case of `C=CC(=O)N(c1ccccc1)c1ccc(Br)cc1` [KB05], the inhibition at 100 µM was 52% on UniProt P46934 (100 uM, read-out: percent inhibition); 10% at UniProt Q9BZR9 (read-out: KB05_100 uM_percent_inhibition); 17% at UniProt Q96EX2. For the same compound, the inhibition at 500 µM at UniProt P46934 (500 uM, read-out: percent inhibition) is 53%; at UniProt Q96EX2 (500 uM) it was 16%. For the same compound, the “KB05_100 uM_percent_inhibition” value at UniProt Q9BZR9 (100 uM) came to 16%. Besides, the “KB05_500 uM_percent_inhibition” value on UniProt P49792 worked out at 75%. At UniProt Q96EX2 (500 uM), the percent_inhibition came out at 29%.

Turning to `O=C(CCl)Nc1cc(C(F)(F)F)cc(C(F)(F)F)c1` [KBO3], the percent inhibition on UniProt P46934 (100 uM) is reported as 71%; at UniProt P46934 (500 uM), 76%; on UniProt Q969V5, 38%. The “KB03_100 uM_percent_inhibition” value on UniProt Q9BZR9 (100 uM) is 39%. Also, the “KB03_500 uM_percent_inhibition” value on UniProt P49792 is 79%.
